Measurements published in a compilation of properties of binary mixtures (doi:10.1016/j.fluid.2021.113175).

Assay: xn = mol fraction of the nth substance listed
Conditions: 100 kPa

CC[N+]1(C)CCCC1.COP(=O)([O-])OC + CCO
viscosity [mPa·s]
Conditions	293.15 K	298.15 K	303.15 K	308.15 K	313.15 K	318.15 K	323.15 K	328.15 K	333.15 K	338.15 K
x1 = 0.0534	–	2.03	1.84	1.7	1.59	1.47	–	1.27	1.18	–
x1 = 0.1054	3.4	3.06	2.75	2.51	2.31	–	1.96	–	1.71	1.6
x1 = 0.1535	–	–	–	3.68	3.33	3.06	–	2.61	2.42	2.23
x1 = 0.2015	6.75	6.07	5.35	4.78	4.33	3.97	–	–	–	2.8
x1 = 0.306	13.5	–	10.16	8.72	7.62	6.71	6.04	5.41	4.85	4.4
x1 = 0.4029	23.1	19.4	16.43	13.96	11.88	10.18	8.85	7.81	6.85	6
x1 = 0.5052	37.5	30.3	24.7	–	17.4	14.83	12.49	10.82	9.31	8
x1 = 0.6022	57	45.9	36.3	29.9	24.6	20.4	17.4	–	12.65	10.78
x1 = 0.6938	83.2	64.5	50.1	–	32.4	27	–	19	16.05	13.13
x1 = 0.8049	120.2	91.1	70	54.9	44	35.6	–	–	20.3	16.7
x1 = 0.9073	171	127.5	94.7	73.8	57.5	46.3	38	31	24.5	–
x1 = 1	228	169	–	–	72.8	56.4	45.1	36.6	29.8	–

COP(=O)([O-])OC.C[N+]1(CCO)CCCC1 + CCO
viscosity [mPa·s]
Conditions	293.15 K	298.15 K	303.15 K	308.15 K	313.15 K	318.15 K	323.15 K	328.15 K	333.15 K	338.15 K
x1 = 0.0561	2.69	2.27	–	–	1.54	1.33	1.17	1.04	0.92	0.82
x1 = 0.1077	–	4.39	3.88	–	3.23	2.94	2.69	2.47	2.28	2.1
x1 = 0.1523	7.31	6.71	6.24	–	5.31	4.98	4.66	4.37	4.09	3.85
x1 = 0.2079	–	10.91	–	8.65	7.87	–	6.44	–	5.33	4.93
x1 = 0.2537	19.2	16.9	14.81	13.08	11.56	–	9.55	8.62	8	7.27
x1 = 0.3084	–	27.7	–	–	18.5	16.22	14.35	–	11.68	10.55
x1 = 0.4033	–	48.5	40.2	34.3	30	–	22.9	20.3	–	–
x1 = 0.5077	–	98.2	–	64.3	53.4	–	–	33.1	28	–
x1 = 0.6042	220	174	133.8	108.1	87.6	72.1	–	–	42	–
x1 = 0.7053	–	–	219	167	128.5	102.3	82.6	66.1	–	43.3
x1 = 0.8055	670	–	346	257	196	152.8	120.7	95	76.3	–
x1 = 0.9053	1030	722	512	374	–	212	163	128.6	102.4	80.5
x1 = 1	1452	981	687	496	366	–	210	162	127.5	96.7

CCO + CC[N+]1(C)CCCC1.COP(=O)([O-])OC
x2 = 0
Conditions	viscosity [mPa·s]
293.15 K	1.19
298.15 K	1.08
303.15 K	0.98
313.15 K	0.82
323.15 K	0.69
338.15 K	0.54

CCO + COP(=O)([O-])OC.C[N+]1(CCO)CCCC1
x2 = 0
Conditions	viscosity [mPa·s]
293.15 K	1.19
303.15 K	0.98
308.15 K	0.9
313.15 K	0.82
318.15 K	0.75
323.15 K	0.69
328.15 K	0.63
333.15 K	0.58
338.15 K	0.54
